Measurements from PubChem BioAssay AID1963433 (Molecular Pharmacology Branch, DTP, NCI, 2024).
Several values for one entry are separate records, joined by “and”; a condition that tells them apart may be missing. Identical values can stand only once.

Test system: 772245-204-R-J1-PDC complex spheroid growth
Test: Anticancer human tumor 772245-204-R-J1-PDC patient-derived rhabdomyosarcoma cell line growth inhibition [Asc]
Settings: for viability, T/C: stronger effect = lower value
Procedure: Multicellular complex tumor spheroid response to apoptosis pathway targeting inhibitors Alrizomadlin, Pelcitoclax, and Dasminapant in combination with a variety of drugs and investigational agents in selected tumor cell lines
The MDM2 inhibitor alrizomadlin, the Bcl-2/Bcl-xL inhibitor pelcitoclax, and the IAPs inhibitor dasminapant were evaluated both individually and in combination with standard of care and investigational anticancer small molecules within a complex spheroid model of solid tumors. . Complex spheroids include a stromal component modeled by human endothelial cells (HUVEC) and fibroblasts modeled by human mesenchymal stem cells (MSCs). The concentration ranges selected for each drug and investigational agent were based upon clinically achievable concentrations if the clinical Cmax of the agent was known.
Compounds. The drugs and investigational agents: alrizomadlin (APG-115; NSC831270), pelcitoclax (APG-1252; NSC835773), dasminapant (APG-1387;NSC834197), TAK-243 (NSC785004), copanlisib (NSC809693), olaparib (NSC753686), talazoparib (NSC767125), cobimetinib (NSC 768068), eltanexor (KPT-8602, NSC 794443), abemaciclib (NSC 768073), sotorasib (NSC818433), adagrasib (NSC 831453), MRTX-1133 (NSC 836407), Iadademestat (ORY1001, NSC 806812), and RMC-4630 (NSC839698), were obtained from the NCI Developmental Therapeutics Program Chemical Repository. The FDA-approved anticancer drug set is available from the Developmental Therapeutics Program at https://dtp.cancer.gov/organization/dscb/obtaining/available plates.htm. […] The stock solutions were prepared in dimethyl sulfoxide (DMSO, Sigma-Aldrich, St. Louis, MO, cat. D2650) at 800-fold the tested concentration and stored at -70 degrees C prior to their use. All drugs and investigational agents were tested over a range starting from a high concentration at or near the clinical Cmax and decreasing in half-log increments. If the clinical Cmax for an agent had not been determined, the highest concentration tested was 10 microM.
The patient-derived cancer (PDC) cell lines include five colon adenocarcinomas: 186277-243-T-J2-PDC, 616215-338-R-J1-PDC, 439559-082-T-J2-PDC, 463943-066-T-J2-PDC, and 519858-162-T-J1-PDC; three pancreatic carcinomas: 323965-272-R-J2-PDC, 521955-158-R6-J3-PDC, and 521955-158-R2-J5-PDC; two uterine sarcomas: 327498-152-R-J2-PDC and 993429-296-R-J1-PDC; two rhabdomyosarcomas: 755483-174-R-J1-PDC and 772245-204-R-J1-PDC; two soft tissue sarcomas: 126254-015-R-J1-PDC and 494315-158-R-J1-PDC; two malignant fibrous histiocytomas: 317291-083-R-J1-PDC and 596521-263-R-J1-PDC; two breast carcinomas: 171881-019-R-J1-PDC and 885512-296-R-J2-PDC; and one ovarian carcinoma: 6556581-035-R-J-PDC were obtained from the NCI PDMR, (https://pdmr.cancer.gov). The established cell lines HSSY-2 synovial sarcoma (RRID:CVCL 8719), SYO-1 synovial sarcoma (RRID:CVCL_7146), MPNST malignant peripheral neural sheath tumor were obtained from the Sloan Kettering Institute. The following established cell lines were purchased from the American Type Culture Collection (ATCC, Manassas, VA), Sor the received from the NCI repository:, PANC-1 pancreatic carcinoma (CRL-1469, RRID:CVCL_0480), OVCAR-5 ovarian carcinoma (RRID:CVCL_1628), OVCAR-8 ovarian carcinoma (RRID:CVCL_1629), , MCF-7 breast carcinoma (CRL-12584, RRID:CVCL_0031), MDA-MB-231 breast carcinoma (CRL-12532, RRID:CVCL_0062), NCI-H1876 small cell lung carcinoma (CRL-5902, RRID:CVCL_1503), NCI-H510A small cell lung carcinoma (HTB-184, RRID:CVCL_1565), NCI-H1417 (CRL-5869, RRID:CVCL_1469), and NCI-H196 small cell lung carcinoma (CRL-5823, RRID:CVCL_1509). Dr. Peter Houghton (Greehey Children's Cancer Research Institute, University of Texas Health Science Center, San Antonio, TX) provided Rh-18 rhabdomyosarcoma (RRID:CVCL_1659). Pooled donor human umbilical vein endothelial cells (HUVEC, Lonza, cat. CC-2519) and human mesenchymal stem cells (hMSC, Lonza, cat. PT-2501) were purchased from Lonza (Walkersville, MD).
Cell Culture. […]
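Note: compound exposure lasted seven days.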
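Throughout, for viability, T/C: 100% = DMSO vehicle control viability.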

CNC(C)C(=O)NC1CN(S(=O)(=O)c2cccc(S(=O)(=O)N3CCC4CCC(C(=O)NC(c5ccccc5)c5ccccc5)N4C(=O)C(NC(=O)C(C)NC)C3)c2)CCC2CCC(C(=O)NC(c3ccccc3)c3ccccc3)N2C1=O (stereo unspecified) + Cc1c(S(C)(=O)=O)c(-c2cc(F)cc(N3CCN(c4ccc(NS(=O)(=O)c5ccc(NC(CCN6CCC(C(=O)OCCCP(=O)(O)O)CC6)CSc6ccccc6)c(S(=O)(=O)C(F)(F)F)c5)cc4)CC3)c2)c(-c2ccc(Cl)cc2)n1C(C)C
IC50 (curve of first compound, second compound 0.1 µM): > 1000 nM | IC50 (curve of first compound, second compound 0.316 µM): 72 nM | IC50 (curve of first compound, second compound 1 µM): < 3.16 nM | IC50 (curve of first compound, second compound 3.16 µM): < 3.16 nM | IC50 (curve of first compound, second compound 10 µM): < 3.16 nM | viability, T/C (second compound 0.1 µM, first compound 0.00316 µM): 79.9% | viability, T/C (second compound 0.1 µM, first compound 0.01 µM): 66.3% | viability, T/C (second compound 0.1 µM, first compound 0.0316 µM): 72.7% | viability, T/C (second compound 0.1 µM, first compound 0.1 µM): 64.8% | viability, T/C (second compound 0.1 µM, first compound 0.316 µM): 63.5% | viability, T/C (second compound 0.1 µM, first compound 1 µM): 63% | viability, T/C (second compound 0.316 µM, first compound 0.00316 µM): 56.1% | viability, T/C (second compound 0.316 µM, first compound 0.01 µM): 56.5% | viability, T/C (second compound 0.316 µM, first compound 0.0316 µM): 55% | viability, T/C (second compound 0.316 µM, first compound 0.1 µM): 45.8% | viability, T/C (second compound 0.316 µM, first compound 0.316 µM): 45.2% | viability, T/C (second compound 0.316 µM, first compound 1 µM): 44.5% | viability, T/C (second compound 1 µM, first compound 0.00316 µM): 43% | viability, T/C (second compound 1 µM, first compound 0.01 µM): 53.5% | viability, T/C (second compound 1 µM, first compound 0.0316 µM): 37.9% | viability, T/C (second compound 1 µM, first compound 0.1 µM): 37.1% | viability, T/C (second compound 1 µM, first compound 0.316 µM): 35.2% | viability, T/C (second compound 1 µM, first compound 1 µM): 39.1% | viability, T/C (second compound 3.16 µM, first compound 0.00316 µM): 31.4% | viability, T/C (second compound 3.16 µM, first compound 0.01 µM): 32.8% | viability, T/C (second compound 3.16 µM, first compound 0.0316 µM): 31.6% | viability, T/C (second compound 3.16 µM, first compound 0.1 µM): 29.5% | viability, T/C (second compound 3.16 µM, first compound 0.316 µM): 29.8% | viability, T/C (second compound 3.16 µM, first compound 1 µM): 25% | viability, T/C (second compound 10 µM, first compound 0.00316 µM): 32.2% | viability, T/C (second compound 10 µM, first compound 0.01 µM): 41.5% | viability, T/C (second compound 10 µM, first compound 0.0316 µM): 31.4% | viability, T/C (second compound 10 µM, first compound 0.1 µM): 25.2% | viability, T/C (second compound 10 µM, first compound 0.316 µM): 23.7% | viability, T/C (second compound 10 µM, first compound 1 µM): 22.3%

NC(=O)C(=Cn1cnc(-c2cc(C(F)(F)F)cc(C(F)(F)F)c2)n1)c1cncnc1 + CCN1C(C(=O)NC23CCC(C(=O)O)(CC2)CC3)C(c2cccc(Cl)c2F)C2(C(=O)Nc3cc(Cl)ccc32)C12CCCCC2
IC50 (curve of first compound, second compound 0.03 µM): 75.5 nM | IC50 (curve of first compound, second compound 0.0949 µM): 27.3 nM | IC50 (curve of first compound, second compound 0.3 µM): 47.3 nM | IC50 (curve of first compound, second compound 0.949 µM): 28.2 nM | IC50 (curve of first compound, second compound 3 µM): 14.5 nM | viability, T/C (second compound 0.03 µM, first compound 0.000949 µM): 88.9% | viability, T/C (second compound 0.03 µM, first compound 0.003 µM): 96.5% | viability, T/C (second compound 0.03 µM, first compound 0.00949 µM): 97.1% | viability, T/C (second compound 0.03 µM, first compound 0.03 µM): 92.4% | viability, T/C (second compound 0.03 µM, first compound 0.0949 µM): 38.5% | viability, T/C (second compound 0.03 µM, first compound 0.3 µM): 40.5% | viability, T/C (second compound 0.0949 µM, first compound 0.000949 µM): 103% | viability, T/C (second compound 0.0949 µM, first compound 0.003 µM): 93.1% | viability, T/C (second compound 0.0949 µM, first compound 0.00949 µM): 88.5% | viability, T/C (second compound 0.0949 µM, first compound 0.03 µM): 44.5% | viability, T/C (second compound 0.0949 µM, first compound 0.0949 µM): 37.2% | viability, T/C (second compound 0.0949 µM, first compound 0.3 µM): 22.6% | viability, T/C (second compound 0.3 µM, first compound 0.000949 µM): 94.7% | viability, T/C (second compound 0.3 µM, first compound 0.003 µM): 105% | viability, T/C (second compound 0.3 µM, first compound 0.00949 µM): 85.2% | viability, T/C (second compound 0.3 µM, first compound 0.03 µM): 62.8% | viability, T/C (second compound 0.3 µM, first compound 0.0949 µM): 31.1% | viability, T/C (second compound 0.3 µM, first compound 0.3 µM): 30.4% | viability, T/C (second compound 0.949 µM, first compound 0.000949 µM): 92.8% | viability, T/C (second compound 0.949 µM, first compound 0.003 µM): 88.8% | viability, T/C (second compound 0.949 µM, first compound 0.00949 µM): 84.7% | viability, T/C (second compound 0.949 µM, first compound 0.03 µM): 46.4% | viability, T/C (second compound 0.949 µM, first compound 0.0949 µM): 28.8% | viability, T/C (second compound 0.949 µM, first compound 0.3 µM): 18.1% | viability, T/C (second compound 3 µM, first compound 0.000949 µM): 69.9% | viability, T/C (second compound 3 µM, first compound 0.003 µM): 66.9% | viability, T/C (second compound 3 µM, first compound 0.00949 µM): 69.5% | viability, T/C (second compound 3 µM, first compound 0.03 µM): 17.7% | viability, T/C (second compound 3 µM, first compound 0.0949 µM): 10.8% | viability, T/C (second compound 3 µM, first compound 0.3 µM): 15.9%

Cc1c(S(C)(=O)=O)c(-c2cc(F)cc(N3CCN(c4ccc(NS(=O)(=O)c5ccc(NC(CCN6CCC(C(=O)OCCCP(=O)(O)O)CC6)CSc6ccccc6)c(S(=O)(=O)C(F)(F)F)c5)cc4)CC3)c2)c(-c2ccc(Cl)cc2)n1C(C)C (stereo unspecified)
viability, T/C (compound 0.1 µM): 82.6% [middle of 14 runs] | viability, T/C (compound 0.316 µM): 67.3% [middle of 14 runs] | viability, T/C (compound 1 µM): 53.8% [middle of 14 runs] | viability, T/C (compound 10 µM): 45.4% [middle of 14 runs]

O=C(c1ccc(F)c(F)c1Nc1ccc(I)cc1F)N1CC(O)([C@@H]2CCCCN2)C1
viability, T/C (compound 0.00316 µM): 108% and 99.4% and 97.4% | viability, T/C (compound 0.01 µM): 94.5% and 97% and 98.1% | viability, T/C (compound 0.0316 µM): 87.7% and 96.5% and 90.6% | viability, T/C (compound 0.1 µM): 107% and 102% and 72.1% | viability, T/C (compound 0.316 µM): 105% and 107% and 108% | viability, T/C (compound 1 µM): 49.5% and 60.2% and 114% | IC50 (curve of compound): 990 nM and > 1000 nM
